Measurements as given in article PMC8290497, “Taxifolin, an Inhibitor of Sortase A, Interferes With the Adhesion of Methicillin-Resistant Staphylococcal aureus” (Frontiers in Microbiology, 2021).

Columns and labels:
[1] = test system: S. aureus mature biofilms; test: Mature biofilm assay (crystal violet); format: cell-based, Staphylococcus aureus; settings: 25–200 μM Tax, 24 h
Method: S. aureus biofilms were formed for 24 h at 37°C on the surfaces of the wells of a 96-well plate. Following biofilm formation, different Tax concentrations (25–200 μM) were added to selected wells and the plates were incubated for 24 h at 37°C. The effects of Tax on the mature biofilms were estimated using the crystal violet stain and recorded by a microplate reader.
FIGURE 3 Effect of SrtA inhibitor on virulence-related phenotypes in S. aureus Newman strain. (A) Impact of Tax on the ability of S. aureus to adhere to fibrinogen. (B) Biofilm formation of S. aureus in the presence of different concentrations of Tax. (C) Mature biofilms of S. aureus in the presence of different concentrations of Tax. The ΔsrtA group represented the positive control. (D) Tax affects internalization of S. aureus into A549 cells. A549 cells were infected with S. aureus pretreated with different concentrations of Tax then lysed 2 h post-infection. The number of viable S. aureus in the cells was quantified by serial dilution on TSA agar plates. (E) Effects of Tax on S. aureus protein A (SpA) using FITC-labeled rabbit IgG. Error bars represent means ± SD of three replicates. *P < 0.05, **P < 0.01, ***P < 0.001 calculated with a two-tailed Student’s t-test.

[2] = molecular target: T1, Q172A-SrtA mutant (Staphylococcus aureus, UniProt Q2FV99, Q172A); test: Fluorescence quenching assay, Q172A-SrtA; format: binding
T1 construct: 6xHis; made in house; host or cells: E. coli BL21 (DE3), mutated pET28a-SrtA
Method: Site-directed mutagenesis for D170A-SrtA and Q172A-SrtA was performed based on plasmid pET28a-SrtA using a multi-site mutagenesis kit (Transgen, Beijing, China) and the desired mutation was verified via DNA sequencing by Sangon Biotech (Shanghai, China). Subsequently, recombinant SrtA and the SrtA mutant proteins (D170A and Q172A) were expressed and purified in accordance with a previously published procedure ([Zhulenkovs et al., 2014]). Briefly, bacteria were cultured until an OD600 value of 0.8 was achieved, after which 0.5 mM isopropyl-β-D-thiogalactopyranoside (IPTG) was added to induce recombination of SrtA at 16°C overnight. Because the recombinant protein had 6 × His tags, it was purified using a nickel-nitrilotriacetic acid (Ni-NTA) purification system. Imidazole (10 mM) was used to wash away excess protein, while 400 mM imidazole was employed to elute the target protein.
Molecular modeling studies highlight the benefits of performing site-directed mutagenesis studies. Therefore, fluorescence quenching experiments were utilized to determine the binding affinity of Tax with SrtA and SrtA mutants (D170A, Q172A).

[3] = test system: S. aureus USA300 pneumonia in C57BL/6J mice; test: Murine model of MRSA-induced pneumonia; format: in vivo, mouse
Method: To investigate the therapeutic capability of Tax to treat acute pneumonia infection caused by S. aureus USA300, 6- to 8-week-old female C57BL/6J mice were infected intranasally with 2 × 10^8 CFU of S. aureus USA300, then held upright for 30 s to ensure each animal inhaled the bacteria into their lungs. Two h post-infection, the mice were subcutaneously injected with Tax (100 mg/kg). Similarly, mice were challenged with ΔsrtA and sterile PBS containing 0.5% DMSO (control group) as controls. To assess survival, the mice were checked every 12 h for 96 h, and the percentage that had survived was recorded.
For bacterial counts in lung tissue and histopathological examination, mice were infected intranasally with 30 μL (1 × 10^8 CFUs) of S. aureus USA300. Tax (100 mg/kg) was then injected subcutaneously every 12 h after inoculation. The bacterial load in the lungs was determined after the mice in each group were sacrificed 48 h post-infection. The left lung from each animal was removed aseptically and processed to count the bacterial CFUs. The right lung of each mouse was aseptically removed and analyzed by conventional hematoxylin and eosin (H&E) staining using an optical microscope. The ratio of wet to dry lung tissue weight (W/D ratio) was recorded in each case. Wet lung weight was measured 1 min after surface moisture had been removed. Dry lung weight was determined after dehydration at 80°C. The W/D ratio is used to reveal the degree of tissue edema ([Xia et al., 2016]).
FIGURE 6 Effect of treatment with Tax on S. aureus-induced pneumonia in mice. (A) Effect of Tax on the survival of mice (n = 10 per group) infected with a lethal dose of S. aureus. (B) Effect of Tax (100 mg/kg) on bacterial load in the lungs of mice (n = 6). (C) Gross pathological changes and histopathology of mouse lungs treated with Tax (100 mg/kg/d) or untreated. Scale bar: 50 μm. (D) Lung wet-to-dry weight ratio (W/D). Each value represents mean ± SD (n = 5 per group). **P < 0.01, ***P < 0.001; Mann-Whitney test, two-tailed. Horizontal bars represent mean values. Animal data were obtained from two separate experiments.

[4] = test system: SrtA expression in S. aureus; test: Western blot analysis of SrtA expression; format: cell-based, Staphylococcus aureus; settings: 25–200 μM Tax, compared with the untreated group
Method: To evaluate the effect of Tax on SrtA expression, Tax (25–200 μM) was added to different bacterial cultures and incubated overnight at 37°C. Equal quantities of total protein from the bacterial lysates were separated by 12% SDS-PAGE then transferred to a polyvinylidene fluoride (PVDF) membrane using a transblot semidry system. Non-specific binding to the PVDF membrane was prevented by incubating in 5% bovine serum albumin (BSA) overnight at 4°C. The membranes were washed three times with PBST, agitating each time for 5 min, then incubated with rabbit polyclonal antibody (created in the laboratory) against SrtA. Following a further washing in PBST three times, the membranes were incubated with HRP-labeled goat anti-rabbit IgG (Bioworld, China) diluted 1:10,000 in antibody diluent (PBST + 1% BSA) at 37°C for 1 h. ΔsrtA or S. aureus USA300 without Tax was considered the control group. The cytoplasmic protein ClpP was analyzed as an internal control. Blots were visualized using an enhanced chemiluminescence (ECL) detection system (GE Healthcare, United Kingdom), while bands were quantified using ImageQuant TL software (GE Healthcare).
FIGURE 4 Expression of SrtA in the presence of Tax and the interaction of different concentrations of Tax with SrtA. […] Error bars represent means ± SD of three replicates. ***P < 0.001 calculated with a two-tailed Student’s t-test.

In the case of O=C1c2c(O)cc(O)cc2OC(c2ccc(O)c(O)c2)C1O (stereo not shown) [Tax, taxifolin], the “effect on mature biofilms” value [1] is reported as “had no effect”, the Kd [2] is reported as 26 µM and the “bacterial load in the lungs” value ([3]; Tax 100 mg/kg subcutaneous every 12 h, 48 h post-infection) is reported as 6.73 ± 0.69 lg CFU/g. The lung histopathology ([3]; Tax 100 mg/kg, infected mice, H&E staining) was “significantly reduced inflammation”, the “lung wet-to-dry weight ratio (W/D)” value ([3]; Tax 100 mg/kg, infected mice, P < 0.001) was 5.35 ± 0.34 and the “survival rate of mice” value ([3]; lethal dose S. aureus USA300 intranasal, Tax 100 mg/kg subcutaneous, 96 h, p < 0.01) was 50%. For the same compound, the “effect on SrtA expression” value [4] was “no apparent effect”.
